# Measured values from patent US9345677B2, “Compositions, methods and kits relating to HER-2 cleavage” (Incyte Corporation, priority 2003, dated 2016).
# Assays:
# MMP12 = MMP12 (Homo sapiens, UniProt P39900); test: MMP12 fluorogenic peptide biochemical assay
# Excerpt: Source of enzymes for biochemical assays: Except for ADAM17 and MT1-MMP, all recombinant human MMPs and ADAMs were obtained from R&D Systems (Minneapolis, Minn.). […] MT1-MMP was obtained from US Biological (Swampscott, Mass.) with a catalog number of M2429. Porcine ADAM17 was purified in house from porcine spleen.
# Substrates for biochemical assays: Fluorogenic Peptide substrate, (7-methoxycoumarin-4-yl)acetyl-Pro-Leu-Gly-Leu-(3-[2,4-dinitrophenyl]-L-2,3-diaminopropionyl)-Ala-Arg-NH2 (SEQ ID NO: 46), was obtained from R&D Systems (Minneapolis, Minn.) with a catalog number of ES001. It was used as substrate for MMP1, MMP2, MMP7, MMP8, MMP9, MMP12, MMP13, and MT1-MMP. Fluorogenic Peptide substrate, (7-methoxycoumarin-4-yl)acetyl-Arg-Pro-Lys-Pro-Val-Glu-Nva-Trp-Arg-Lys(2,4-dinitrophenyl)-NH2 (SEQ ID NO: 47), was obtained from R&D Systems with a catalog number of ES002. It was used as substrate for MMP3 and MMP10. […]
# In general, 5 mM compound stock was prepared in DMSO. […] The plate was read on a plate reader with excitation of 320 nm and emission of 405 nm. Percentage of inhibition was calculated for each concentration and IC50 value was generated from curve fitting. […]
# BT474 cells = test: Cell proliferation assay (cell counting, BrdU incorporation); type: cell-based, human; conditions: Her-2 overexpressing BT474 cells
# Procedure: Proliferation assays were routinely performed with two protocols: cell counting and BrdU incorporation assay. For cell counting, cells (1×10^5) were seeded in each well of 12 well plates and cultured overnight. Then, cells were treated for 6 days with drugs and compounds as indicated in individual experiments. Culture media were replaced with fresh media containing the same concentrations of drugs and compounds after the first 3 days of treatment. Viable cells were counted with hemacytometers immediately after trypan blue staining.
# The BrdU incorporation assay was performed using a colorimetric Cell Proliferation ELISA kit per manufacturer's instruction (#1647229, Roche Molecular Biochemicals), measuring DNA synthesis in proliferating cells. Briefly, cells (5−10×10^3) were seeded in each well of 96 well plates and cultured overnight. […] Finally, 100 μl/well of substrate solution was added and the results were obtained using a microplate reader (Spectra Max PLUS, Molecular Devices) during color development. Multiple readings at various time points were obtained and results in the linear range of the assay were obtained. […]
# After varying periods of cell culture (2-6 days), the cell cultures were harvested and cell growth was assessed by cell count and BRdU incorporation using standard protocols.
# Sequence of MMP12 (P39900 106-470): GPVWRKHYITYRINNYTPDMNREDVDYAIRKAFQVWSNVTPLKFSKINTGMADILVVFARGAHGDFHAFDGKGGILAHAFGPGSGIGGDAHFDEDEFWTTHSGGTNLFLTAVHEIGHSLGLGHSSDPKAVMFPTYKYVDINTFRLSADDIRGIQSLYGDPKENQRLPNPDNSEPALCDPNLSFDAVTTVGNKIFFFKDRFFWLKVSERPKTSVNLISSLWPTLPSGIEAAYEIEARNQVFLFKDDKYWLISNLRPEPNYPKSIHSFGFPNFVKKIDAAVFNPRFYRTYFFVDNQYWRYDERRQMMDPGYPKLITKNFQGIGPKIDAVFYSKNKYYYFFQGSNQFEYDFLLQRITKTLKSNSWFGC
compound,measurement,setting,value
"Cc1cc([N+](=O)[O-])ccc1N1CCN(C(=O)[C@@H]2[C@@H](C(=O)NO)CC3(CC3)CN2C)CC1 [Compound 5, (6S,7S)-N-hydroxy-5-methyl-6-{[4-(2-methyl-4-nitrophenyl)piperazin-1-yl]-carbonyl}-5-azaspiro[2.5]octane-7-carboxamide]",IC50,MMP12,584 nM
same,effect on antiproliferative activity of a suboptimal dose of Herceptin,BT474 cells,synergistically enhances
